Results reported in patent US20170119760A1 (AB SCIENCE, priority 2015, published 2017).

Columns and labels:
C57BL/6 mice = assay: Mortality after MPTP intoxication; type: in vivo; settings: 24 hours after treatment by the MPTP
From the text: Brain samples were collected after mice anesthesia and sacrifice.

monoamine oxidase = assay: MPTP mouse model: monoamine oxidase fluorometric assay of total brain protein extract; settings: for Monoamine oxidase fluorometric assay: total brain protein extract, control = 100
[1] = tested on: tyrosine hydroxylase expression; assay: MPTP mouse model: tyrosine hydroxylase ELISA assay of total brain protein extract; settings: for Mean expression of tyrosine hydroxylase: ELISA, control 0.275
Protocol: The microliter plate wells were coated overnight at 4° C. with 5 μg of total brain protein extract. All unbound sites were blocked with a blocking buffer 10% FCS in PBS 1 hour at room temperature. Then, the anti-tyrosine hydroxylase rabbit polyclonal antibody, diluted 1:1000 was added for 2 hours at room temperature.

[2] = tested on: tyrosine hydroxylase expression; assay: MPTP mouse model: tyrosine hydroxylase immunohistochemistry on coronal brain sections; type: in vivo, C57BL/6 mice; settings: MPTP + masitinib 2×5 mg/kg; 5 μm-thick coronal sections
Protocol: The 5 μM-thick coronal sections were deparaffinized and hydrated, Endogenous peroxydase were inhibited with a dual endogenous enzyme block solution (Cat #S2003, DakoCytonation). Non specific protein binding was blocked with 1% BSA in PBS, pH=7,4. […] Peroxidase staining was obtained using the AbCys Histogreen substrate kit (Cat #E109, AbCys) and counterstained with a Neutral Red solution. After dehydration the sections were cover-slipped with Eukitt®.

[3] = tested on: human cord blood mast cells; settings: cited from earlier work

Structure (SMILES) | mortality (C57BL/6 mice) | Monoamine oxidase fluorometric assay (monoamine oxidase; MPTP alone) | Mean expression of tyrosine hydroxylase ([1]; MPTP alone (4 × 20 mg/kg), solvent treated) | attenuation of tyrosine hydroxylase destruction by immunohistochemistry [2] | FccRI-mediated degranulation of human cord blood mast cells [3] | Monoamine oxidase fluorometric assay (monoamine oxidase; MPTP + masitinib 2 × 5 mg/kg) | activity of monoamine oxidase with respect to the control group (monoamine oxidase; MPTP in combination with masitinib) | decrease of tyrosine hydroxylase expression in response to MPTP treatment ([1]; MPTP + masitinib 2×5 mg/kg cohort) | Mean expression of tyrosine hydroxylase ([1]; MPTP + masitinib 2 × 5 mg/kg per os, day -7 to day 7) | Mean expression of tyrosine hydroxylase ([1]; masitinib alone 2 × 30 mg/kg per os, no MPTP) | basal expression of tyrosine hydroxylase compared with control ([1]; masitinib alone, no MPTP)
CN1CC=C(c2ccccc2)CC1 [MPTP, 1-methyl-4-phenyl-1,2,3,6-tetrahydropyridine, reference compound] | No mortality | 108 | 0.175 | – | – | – | – | – | – | – | –
Cc1ccc(NC(=O)c2ccc(CN3CCN(C)CC3)cc2)cc1Nc1nc(-c2cccnc2)cs1 [Masitinib, 4-(4-methylpiperazin-1-ylmethyl)-N-[4-methyl-3-(4-pyridin-3ylthiazol-2-ylamino)phenyl]benzamide] | – | – | – | reproducible | inhibition | 115 | maintained | significantly diminished decrease | 0.215 | 0.225 | did not modify significantly
